This data set in a line: Multistage LLE (MLLE) of binary dye mixture on EWOD device with IL extractant. As to conditions: binary 1:1 green/yellow dye sample. The data set is classed as physicochemical. As for the experimental part:
The sample phase was prepared by mixing equal amounts of these two dyes. The final concentration of each analyte in the sample mixture formed was 1250 μg/ml for all the EWOD LLE experiments. […]
For the LLE process on an EWOD DMF electrode array, the droplets were generated, mixed, and split during the process. […] The on-chip concentration method quantified the yield of the LLE process. […]
In order to explore this characteristic of EWOD, MLLE was performed in this study with two cycles of LLE. […] After each cycle of the process, the sample droplet was transported to the concentration measurement electrode, and the voltage measurement was done for absorbance.
Next, the results of binary separation by MLLE performed on the EWOD device 20 was compared with theoretical values. The theoretical values were calculated from the partition coefficient values of each solute obtained in the manner described above. […]

As for `Cc1ccc(Nc2ccc(Nc3ccc(C)cc3S(=O)(=O)[O-])c3c2C(=O)c2ccccc2C3=O)c(S(=O)(=O)[O-])c1.[Na+].[Na+]` [green dye, acid green 25], the “green dye extracted after first cycle of LLE on EWOD” value (IL extractant, extraction time 5 minutes) was about 50%. Also, the “initial green dye extracted at the end of the second cycle” value (fresh IL droplet, two MLLE cycles) is about 60%.

Values taken from US11642671B2, “Electrowetting on dielectric (EWOD) device to perform liquid-to-liquid extraction (LLE) of biomolecules and systems and methods for using the EWOD device” (Board of Regents, The University of Texas System, priority 2019, dated 2023).
